Among the data in patent publication US9376425B2, “Heterocyclic compounds as MDM2 inhibitors for the treatment of cancer” (AMGEN INC., priority 2011, dated 2016) are IC50 values, retold here.

SMILES strings stand for the structures.

For orientation: IC50 means the point on the concentration scale where inhibition reaches its midpoint. Higher therefore signals weaker potency.

T1 sequence (Q00987 1-188): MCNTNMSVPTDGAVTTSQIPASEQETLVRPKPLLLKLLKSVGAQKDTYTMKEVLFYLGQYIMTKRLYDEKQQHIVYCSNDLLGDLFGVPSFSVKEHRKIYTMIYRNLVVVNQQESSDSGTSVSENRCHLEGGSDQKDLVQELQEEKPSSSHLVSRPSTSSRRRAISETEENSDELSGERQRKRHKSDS

This assay has as its target T1, human MDM2 (GST-hMDM2 aa 1-188), interaction with biotinylated-p53 (aa 1-83) (Homo sapiens, UniProt Q00987).
T1 construct: Amino acid residues 1-188 of human MDM2 were expressed; made in house; host or cells: Escherichia coli
Nature of the assay: Homogenous Time-Resolved Fluorescence Assay (HTRF1 assay), inhibition of HDM2-p53 interaction. The class given is binding. The following applies: 2.5 nM GST-hMDM2, 5 nM biotinylated-p53, 200 mM KF. Here is the method:
Homogenous Time-Resolved Fluorescence Assay (HTRF1 Assay)
Residues 1-83 of human p53 were expressed as an amino-terminal AviTag™-TrxA-6xHis fusion protein (biotinylated p53) in E. coli. Each protein was purified from cell paste by affinity chromatography.
Specifically, 10 uL of GST-hMDM2 was incubated with 10 ul of diluted compound (various concentrations, serially diluted) in 10% DMSO for 20 minutes at room temperature. 20 uL of biotinylated-p53 was added to the GST-hMDM2+ compound mixture, and then incubated at room temperature for 60 min. 10 uL of detection buffer consisting of SA-XLent, anti-GST cryptate antibody and KF was added to GST-hMDM2, biotinylated-p53 and compound reaction and left at room temperature to reach equilibrium for >4 hrs. The final concentration of DMSO in the reaction was 2%. Time-resolved fluorescence readings were measured on a microplate multilabel reader. Percentage of inhibition was calculated relative to nutlin-3.
In turn, `O=C(O)C[C@H]1O[C@H](c2cc(Cl)cc(-c3cncnc3)c2)[C@@H](c2ccc(Cl)cc2)N(CC2CC2)C1=O` (single isomer, unassigned) [Example 108] gave an IC50 of 4300 nM.
Then `O=C(O)C[C@@H]1O[C@H](c2cc(Cl)cc(-c3cncnc3)c2)[C@@H](c2ccc(Cl)cc2)N(CC2CC2)C1=O` (single isomer, unassigned) [Example 109], with 2800 nM.
For `CS(=O)(=O)c1cc(Cl)cc([C@H]2O[C@H](CC(=O)O)C(=O)N(CC3CC3)[C@@H]2c2ccc(Cl)cc2)c1` (single isomer, unassigned) [Example 110], the IC50 is 3700 nM.
In the case of `CS(=O)(=O)c1cc(Cl)cc([C@H]2O[C@@H](CC(=O)O)C(=O)N(CC3CC3)[C@@H]2c2ccc(Cl)cc2)c1` (single isomer, unassigned) [Example 111] it was 2300 nM; in that of `O=C(O)/C=C1\O[C@H](c2cccc(Cl)c2)[C@@H](c2ccc(Cl)cc2)N(CC2CC2)C1=O` (single isomer, unassigned; isomer 1) [Example 51, (Z)-2-((5R,6R)-6-(3-Chlorophenyl)-5-(4-chlorophenyl)-4-(cyclopropylmethyl)-3-oxomorpholin-2-ylidene)acetic acid or (E)-2-((5R,6R)-6-(3-Chlorophenyl)-5-(4-chlorophenyl)-4-(cyclopropylmethyl)-3-oxomorpholin-2-ylidene)acetic acid (Isomer 1)], 600 nM.
Regarding `O=C(O)/C=C1/O[C@H](c2cccc(Cl)c2)[C@@H](c2ccc(Cl)cc2)N(CC2CC2)C1=O` (single isomer, unassigned; isomer 2) [Example 52, (E)-2-((5R,6R)-6-(3-Chlorophenyl)-5-(4-chlorophenyl)-4-(cyclopropylmethyl)-3-oxomorpholin-2-ylidene)acetic acid or (Z)-2-((5R,6R)-6-(3-Chlorophenyl)-5-(4-chlorophenyl)-4-(cyclopropylmethyl)-3-oxomorpholin-2-ylidene)acetic acid (Isomer 2)], the IC50 worked out at 19700 nM.
On to `O=C(O)C[C@@H]1O[C@H](c2cccc(Cl)c2)[C@@H](c2ccc(Cl)cc2)N(CCC(F)(F)F)C1=O` [Example 11, 2-((2S,5R,6R)-6-(3-Chlorophenyl)-5-(4-chlorophenyl)-3-oxo-4-(3,3,3-trifluoropropyl)morpholin-2-yl)acetic acid], for which the IC50 stood at 600 nM.
In turn, `O=C(O)C[C@@H]1O[C@H](c2cccc(Cl)c2)[C@@H](c2ccc(Cl)cc2)N(C2CCC2)C1=O` [Example 12, 2-((2S,5R,6R)-6-(3-Chlorophenyl)-5-(4-chlorophenyl)-4-cyclobutyl-3-oxomorpholin-2-yl)acetic acid] had an IC50 of 900 nM.
In turn, `O=C(O)C[C@H]1O[C@H](c2cccc(Cl)c2)[C@@H](c2ccc(Cl)cc2)N(C2CCC2)C1=O` [Example 13, 2-((2R,5R,6R)-6-(3-Chlorophenyl)-5-(4-chlorophenyl)-4-cyclobutyl-3-oxomorpholin-2-yl)acetic acid] gave an IC50 of 700 nM. This IC50 and that of the compound before are within 1.5-fold of each other.
Then `O=C(O)C[C@@H]1O[C@H](c2cccc(Cl)c2)[C@@H](c2ccc(Cl)cc2)N(C2CCCC2)C1=O` [Example 14, 2-((2S,5R,6R)-6-(3-Chlorophenyl)-5-(4-chlorophenyl)-4-cyclopentyl-3-oxomorpholin-2-yl)acetic acid], with 300 nM; and `O=C(O)C[C@H]1O[C@H](c2cccc(Cl)c2)[C@@H](c2ccc(Cl)cc2)N(C2CCCC2)C1=O` [Example 15, 2-((2R,5R,6R)-6-(3-chlorophenyl)-5-(4-chlorophenyl)-4-cyclopentyl-3-oxomorpholin-2-yl)acetic acid], with 300 nM.
In the case of `O=C(O)C[C@@H]1O[C@H](c2cccc(Cl)c2)[C@@H](c2ccc(Cl)cc2)N(C2CCCCC2)C1=O` [Example 16, 2-((2S,5R,6R)-6-(3-Chlorophenyl)-5-(4-chlorophenyl)-4-cyclohexyl-3-oxomorpholin-2-yl)acetic acid] it was 300 nM; in that of `O=C(O)C[C@H]1O[C@H](c2cccc(Cl)c2)[C@@H](c2ccc(Cl)cc2)N(C2CCCCC2)C1=O` [Example 17, 2-((2R,5R,6R)-6-(3-Chlorophenyl)-5-(4-chlorophenyl)-4-cyclohexyl-3-oxomorpholin-2-yl)acetic acid], 200 nM; in that of `C[C@H](C1CCC1)N1C(=O)[C@@H](CC(=O)O)O[C@H](c2cccc(Cl)c2)[C@H]1c1ccc(Cl)cc1` [Example 20, 2-((2R,5R,6R)-6-(3-Chlorophenyl)-5-(4-chlorophenyl)-4-((R)-1-cyclobutylethyl)-3-oxomorpholin-2-yl)acetic acid], 300 nM.
In the case of `C[C@H](C1CCC1)N1C(=O)[C@H](CC(=O)O)O[C@H](c2cccc(Cl)c2)[C@H]1c1ccc(Cl)cc1` [Example 21, 2-((2S,5R,6R)-6-(3-Chlorophenyl)-5-(4-chlorophenyl)-4-((R)-1-cyclobutylethyl)-3-oxomorpholin-2-yl)acetic acid] it was 300 nM; in that of `C[C@@H](C1CCC1)N1C(=O)[C@@H](CC(=O)O)O[C@H](c2cccc(Cl)c2)[C@H]1c1ccc(Cl)cc1` [Example 22, 2-((2R,5R,6R)-6-(3-Chlorophenyl)-5-(4-chlorophenyl)-4-((S)-1-cyclobutylethyl)-3-oxomorpholin-2-yl)acetic acid], 500 nM.
For `C[C@@H](C1CCC1)N1C(=O)[C@H](CC(=O)O)O[C@H](c2cccc(Cl)c2)[C@H]1c1ccc(Cl)cc1` [Example 23, 2-((2S,5R,6R)-6-(3-Chlorophenyl)-5-(4-chlorophenyl)-4-((S)-1-cyclobutylethyl)-3-oxomorpholin-2-yl)acetic acid], the IC50 was 300 nM.
Then `C[C@H](c1ccccc1)N1C(=O)[C@@H](CC(=O)O)O[C@H](c2cccc(Cl)c2)[C@H]1c1ccc(Cl)cc1` [Example 24, 2-((2R,5R,6R)-6-(3-Chlorophenyl)-5-(4-chlorophenyl)-3-oxo-4-((R)-1-phenylethyl)morpholin-2-yl)acetic acid], with 1000 nM; and `C[C@H](c1ccccc1)N1C(=O)[C@H](CC(=O)O)O[C@H](c2cccc(Cl)c2)[C@H]1c1ccc(Cl)cc1` [Example 25, 2-((2S,5R,6R)-6-(3-Chlorophenyl)-5-(4-chlorophenyl)-3-oxo-4-((R)-1-phenylethyl)morpholin-2-yl)acetic acid], with 600 nM; and `C[C@@H](c1ccccc1)N1C(=O)[C@@H](CC(=O)O)O[C@H](c2cccc(Cl)c2)[C@H]1c1ccc(Cl)cc1` [Example 26, 2-((2R,5R,6R)-6-(3-Chlorophenyl)-5-(4-chlorophenyl)-3-oxo-4-((S)-1-phenylethyl)morpholin-2-yl)acetic acid], with 1500 nM.
Then `C[C@@H](c1ccccc1)N1C(=O)[C@H](CC(=O)O)O[C@H](c2cccc(Cl)c2)[C@H]1c1ccc(Cl)cc1` [Example 27, 2-((2S,5R,6R)-6-(3-Chlorophenyl)-5-(4-chlorophenyl)-3-oxo-4-((S)-1-phenylethyl)morpholin-2-yl)acetic acid], with 600 nM; and `O=C(O)C[C@H]1O[C@H](c2cccc(Cl)c2)[C@@H](c2ccc(Cl)cc2)N(CC2CCCC2)C1=O` [Example 28, 2-((2R,5R,6R)-6-(3-Chlorophenyl)-5-(4-chlorophenyl)-4-(cyclopentylmethyl)-3-oxomorpholin-2-yl)acetic acid], with 500 nM; and `O=C(O)C[C@@H]1O[C@H](c2cccc(Cl)c2)[C@@H](c2ccc(Cl)cc2)N(CC2CCCC2)C1=O` [Example 29, 2-((2S,5R,6R)-6-(3-Chlorophenyl)-5-(4-chlorophenyl)-4-(cyclopentylmethyl)-3-oxomorpholin-2-yl)acetic acid], with 300 nM.
In turn, `O=C(O)C[C@@H]1O[C@H](c2cccc(Cl)c2)[C@@H](c2ccc(Cl)cc2)NC1=O` [Example 34, 2-((2S,5R,6R)-6-(3-Chlorophenyl)-5-(4-chlorophenyl)-3-oxomorpholin-2-yl)acetic acid] displayed an IC50 of 25000 nM.
In the case of `O=C(O)C[C@H]1O[C@H](c2cccc(Cl)c2)[C@@H](c2ccc(Cl)cc2)NC1=O` [Example 35, 2-((2R,5R,6R)-6-(3-Chlorophenyl)-5-(4-chlorophenyl)-3-oxomorpholin-2-yl)acetic acid] it was 13000 nM; in that of `CCCCN1C(=O)[C@H](CC(=O)O)O[C@H](c2cccc(Cl)c2)[C@H]1c1ccc(Cl)cc1` [Example 40, 2-((2S,5R,6R)-4-Butyl-6-(3-chlorophenyl)-5-(4-chlorophenyl)-3-oxomorpholin-2-yl)acetic acid], 700 nM; in that of `O=C(O)C[C@@H]1O[C@H](c2cccc(Cl)c2)[C@@H](c2ccc(Cl)cc2)N(Cc2ncco2)C1=O` [Example 43, 2-((2S,5R,6R)-6-(3-Chlorophenyl)-5-(4-chlorophenyl)-4-(oxazol-2-ylmethyl)-3-oxomorpholin-2-yl)acetic acid], 1100 nM.
The compound `CCN1C(=O)[C@@H](CC(=O)O)O[C@H](c2cccc(Cl)c2)[C@H]1c1ccc(Cl)cc1` [Example 44, 2-((2R,5R,6R)-6-(3-Chlorophenyl)-5-(4-chlorophenyl)-4-ethyl-3-oxomorpholin-2-yl)acetic acid] had an IC50 of 900 nM. The IC50 values of the last two compounds are within 1.5-fold of each other.
Then `CCN1C(=O)[C@H](CC(=O)O)O[C@H](c2cccc(Cl)c2)[C@H]1c1ccc(Cl)cc1` [Example 45, 2-((2S,5R,6R)-6-(3-Chlorophenyl)-5-(4-chlorophenyl)-4-ethyl-3-oxomorpholin-2-yl)acetic acid], with 800 nM.
